# Patent US8618289B2 (Ambit Biosciences Corporation, priority 2008, dated 2013)
# Structures can show the parent of a compound that is named as a salt.
# What was measured:
# [1] = test system: MEK1 phosphorylation in the A375 human melanoma cell line; experiment: cells; conditions: A-375, read-out: pMEK IC50
# A375 cells = experiment: cells; conditions: Homo sapiens, A-375, read-out: A375 Viability EC50
# RAF kinases [2] = molecular target: RAF kinases (Homo sapiens, UniProt P04049); experiment: biochemical
# RAF kinases (Homo sapiens, UniProt P04049), sequence (P04049 whole entry): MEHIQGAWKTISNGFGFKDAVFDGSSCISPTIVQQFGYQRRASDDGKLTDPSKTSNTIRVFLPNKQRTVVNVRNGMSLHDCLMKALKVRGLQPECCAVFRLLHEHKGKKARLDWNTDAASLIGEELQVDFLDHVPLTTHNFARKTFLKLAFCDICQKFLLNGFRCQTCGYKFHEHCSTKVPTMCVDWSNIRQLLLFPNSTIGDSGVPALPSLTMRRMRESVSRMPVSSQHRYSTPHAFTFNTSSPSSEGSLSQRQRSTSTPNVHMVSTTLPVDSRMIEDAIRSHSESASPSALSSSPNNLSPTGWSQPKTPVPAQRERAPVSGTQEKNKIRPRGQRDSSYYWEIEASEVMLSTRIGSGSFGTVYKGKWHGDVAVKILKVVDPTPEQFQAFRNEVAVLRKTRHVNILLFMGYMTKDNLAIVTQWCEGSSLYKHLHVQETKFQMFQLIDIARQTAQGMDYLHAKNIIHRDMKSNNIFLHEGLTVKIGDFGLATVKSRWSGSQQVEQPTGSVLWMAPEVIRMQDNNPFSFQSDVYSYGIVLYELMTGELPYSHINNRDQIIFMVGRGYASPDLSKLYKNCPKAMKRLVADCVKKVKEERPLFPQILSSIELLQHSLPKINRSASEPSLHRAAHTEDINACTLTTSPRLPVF
# RAF kinases [3] = molecular target: RAF kinases (Homo sapiens, UniProt P15056); experiment: biochemical
# RAF kinases (Homo sapiens, UniProt P15056), sequence (P15056 whole entry): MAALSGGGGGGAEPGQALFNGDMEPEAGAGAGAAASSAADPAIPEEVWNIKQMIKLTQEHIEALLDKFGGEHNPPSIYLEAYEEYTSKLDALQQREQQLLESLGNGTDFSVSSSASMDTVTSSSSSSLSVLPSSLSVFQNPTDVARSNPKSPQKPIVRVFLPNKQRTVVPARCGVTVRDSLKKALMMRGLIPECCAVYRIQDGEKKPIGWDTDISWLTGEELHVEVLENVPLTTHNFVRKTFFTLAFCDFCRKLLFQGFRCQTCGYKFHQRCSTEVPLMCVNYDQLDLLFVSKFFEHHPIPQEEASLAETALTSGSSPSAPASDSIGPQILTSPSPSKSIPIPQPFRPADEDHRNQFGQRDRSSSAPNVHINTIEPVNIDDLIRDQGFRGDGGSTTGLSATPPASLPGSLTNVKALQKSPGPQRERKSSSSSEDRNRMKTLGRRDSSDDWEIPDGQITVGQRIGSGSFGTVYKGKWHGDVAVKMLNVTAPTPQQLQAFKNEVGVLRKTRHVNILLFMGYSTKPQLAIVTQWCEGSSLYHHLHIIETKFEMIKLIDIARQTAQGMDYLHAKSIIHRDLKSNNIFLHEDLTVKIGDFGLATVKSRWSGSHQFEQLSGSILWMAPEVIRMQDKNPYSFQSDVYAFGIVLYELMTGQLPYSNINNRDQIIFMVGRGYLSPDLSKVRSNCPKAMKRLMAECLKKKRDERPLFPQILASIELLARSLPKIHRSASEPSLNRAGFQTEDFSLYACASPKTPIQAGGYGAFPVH
Compound,IC50 [1] [nM],EC50 (A375 cells) [nM],Kd (RAF kinases [2]) [nM],Kd (RAF kinases [3]) [nM]
"COc1cc2c(Oc3cccc(NC(=O)Nc4cc(C(C)(C)C)on4)c3)ncnc2cc1OCCN1CCOCC1 [Ex 35, 1-(5-tert-butylisoxazol-3-yl)-3-(3-(6-methoxy-7-(2-morpholinoethoxy)quinazolin-4-yloxy)phenyl)urea]",< 250,500 to 1000,250 to 500,250 to 500
"COc1cc2c(Oc3cccc(NC(=O)Nc4cc(C(C)(C)C)on4)c3)ncnc2cc1OCCN1CCN(C)CC1 [Ex 36, 1-(5-tert-butylisoxazol-3-yl)-3-(3-(6-methoxy-7-(2-(4-methylpiperazin-1-yl)ethoxy)quinazolin-4-yloxy)phenyl)urea]",< 250,250 to 500,250 to 500,250 to 500
"COc1cc2c(Oc3cccc(NC(=O)Nc4cc(C(C)(C)C)on4)c3)ncnc2cc1OCCN1CCC(CO)CC1 [Ex 37, 1-(5-tert-butyl-isoxazol-3-yl)-3-(3-{7-[2-(4-hydroxymethyl-piperidin-1-yl)-ethoxy]-6-methoxy-quinazolin-4-yloxy}-phenyl)-urea]",< 250,250 to 500,250 to 500,250 to 500
"COc1cc2c(Oc3cccc(NC(=O)Nc4cc(C(C)(C)C)on4)c3)ncnc2cc1OCCN1CCN(CCO)CC1 [Ex 38, 1-(5-tert-butylisoxazol-3-yl)-3-(3-(7-(2-(4-(2-hydroxyethyl)piperazin-1-yl)ethoxy)-6-methoxyquinazolin-4-yloxy)phenyl)urea]",< 250,250 to 500,250 to 500,250 to 500
"COc1cc2c(Oc3cccc(NC(=O)Nc4cc(C(C)(C)C)on4)c3)ncnc2cc1OCCN1CCS(=O)(=O)CC1 [Ex 39, 1-(5-tert-butyl-isoxazol-3-yl)-3-(3-{7-[2-(1,1-dioxo-116-thiomorpholin-4-yl)-ethoxy]-6-methoxy-quinazolin-4-yloxy}-phenyl)-urea]",< 250,< 250,250 to 500,250 to 500
"COCCOc1ccc2c(Oc3cccc(NC(=O)Nc4cc(C(C)(C)C)on4)c3)ncnc2c1 [Ex 43, 1-(5-tert-butylisoxazol-3-yl)-3-(3-(7-(2-methoxyethoxy)quinazolin-4-yloxy)phenyl)urea]",250 to 500,> 1000,250 to 500,500 to 1000
"COCCOc1cc2c(Sc3cccc(NC(=O)Nc4cc(C(C)(C)C)on4)c3)ncnc2cc1OC [Ex 45, 1-(5-tert-butylisoxazol-3-yl)-3-(3-(7-methoxy-6-(2-methoxyethoxy)quinazolin-4-ylthio)phenyl)urea]",< 250,250 to 500,250 to 500,500 to 1000
"COc1cc2ncnc(Sc3cccc(NC(=O)Nc4cc(C(C)(C)C)on4)c3)c2cc1OC [Ex 46, 1-(5-tert-butylisoxazol-3-yl)-3-(3-(6,7-dimethoxyquinazolin-4-ylthio)phenyl)urea]",< 250,250 to 500,250 to 500,500 to 1000
"COCCOc1cc2ncnc(Sc3cccc(NC(=O)Nc4cc(C(C)(C)C)on4)c3)c2cc1OC [Ex 52, 1-(5-tert-butylisoxazol-3-yl)-3-{3-[6-methoxy-7-(2-methoxyethoxy)quinazolin-4-ylthio]phenyl}urea hydrochloride]",< 250,500 to 1000,250 to 500,250 to 500
"COCCOc1cc2ncnc(Sc3cccc(NC(=O)Nc4cc(C(C)(C)C)on4)c3)c2cc1OCCOC [Ex 53, 1-{3-[6,7-bis(2-methoxyethoxy)quinazolin-4-ylthio]phenyl}-3-(5-tert-butylisoxazol-3-yl)urea hydrochloride]",< 250,500 to 1000,250 to 500,500 to 1000
"CCOc1cc2c(Sc3cccc(NC(=O)Nc4cc(C(C)(C)C)on4)c3)ncnc2cc1OC [Ex 56, 1-(5-tert-butylisoxazol-3-yl)-3-(3-(6-ethoxy-7-methoxyquinazolin-4-ylthio)phenyl)urea]",< 250,< 250,250 to 500,500 to 1000
"COc1cc2ncnc(Sc3cccc(NC(=O)Nc4cc(C(C)(C)C)on4)c3)c2cc1OCCCN1CCCCC1 [Ex 57, 1-(5-tert-butylisoxazol-3-yl)-3-(3-(7-methoxy-6-(3-(piperidin-1-yl)propoxy)quinazolin-4-ylthio)phenyl) urea]",< 250,> 1000,500 to 1000,500 to 1000
"COc1cc2ncnc(Sc3cccc(NC(=O)Nc4cc(C(C)(C)C)on4)c3)c2cc1OCCCN1CCC(CO)CC1 [Ex 58, 1-(5-tert-butylisoxazol-3-yl)-3-(3-(6-(3-(4-(hydroxymethyl)piperidin-1-yl)propoxy)-7-methoxyquinazolin-4-ylthio)phenyl)urea]",< 250,> 1000,500 to 1000,250 to 500
"COc1cc2ncnc(Sc3cccc(NC(=O)Nc4cc(C(C)(C)C)on4)c3)c2cc1OCCCN1CCN(C)CC1 [Ex 59, 1-(5-tert-butylisoxazol-3-yl)-3-(3-(7-methoxy-6-(3-(4-methylpiperazin-1-yl)propoxy)quinazolin-4-ylthio)phenyl)urea]",< 250,> 1000,250 to 500,250 to 500
"COc1cc2ncnc(Sc3cccc(NC(=O)Nc4cc(C(C)(C)C)on4)c3)c2cc1OCCCN1CCN(S(C)(=O)=O)CC1 [Ex 60, 1-(5-tert-butylisoxazol-3-yl)-3-(3-(7-methoxy-6-(3-(4-(methylsulfonyl)piperazin-1-yl)propoxy)quinazolin-4-ylthio)phenyl) urea]",< 250,250 to 500,250 to 500,500 to 1000
"COc1cc2ncnc(Sc3cccc(NC(=O)Nc4cc(C(C)(C)C)on4)c3)c2cc1OCCN1CCC(CO)CC1 [Ex 66, 1-(5-tert-butylisoxazol-3-yl)-3-(3-(6-(2-(4-(hydroxymethyl)piperidin-1-yl)ethoxy)-7-methoxyquinazolin-4-ylthio)phenyl)urea]",< 250,> 1000,500 to 1000,500 to 1000
"COc1cc2ncnc(Sc3cccc(NC(=O)Nc4cc(C(C)(C)C)on4)c3)c2cc1OCCN1CCN(C)CC1 [Ex 67, 1-(5-tert-butylisoxazol-3-yl)-3-(3-(7-methoxy-6-(2-(4-methylpiperazin-1-yl)ethoxy)quinazolin-4-ylthio)phenyl)urea]",< 250,> 1000,250 to 500,250 to 500
"COc1cc2ncnc(Sc3cccc(NC(=O)Nc4cc(C(C)(C)C)on4)c3)c2cc1OCCN1CCN(CCO)CC1 [Ex 68, 1-(5-tert-butylisoxazol-3-yl)-3-(3-(6-(2-(4-(2-hydroxyethyl)piperazin-1-yl)ethoxy)-7-methoxyquinazolin-4-ylthio)phenyl)urea]",< 250,500 to 1000,250 to 500,250 to 500
"COc1cc2ncnc(Sc3cccc(NC(=O)Nc4cc(C(C)(C)C)on4)c3)c2cc1OCCN1CCN(S(C)(=O)=O)CC1 [Ex 69, 1-(5-tert-butylisoxazol-3-yl)-3-(3-(7-methoxy-6-(2-(4-(methylsulfonyl)piperazin-1-yl)ethoxy)quinazolin-4-ylthio)phenyl)urea]",< 250,250 to 500,250 to 500,250 to 500
"COc1cc2c(Sc3cccc(NC(=O)Nc4cc(C(C)(C)C)on4)c3)ncnc2cc1OCCCN1CCN(C)CC1 [Ex 73, 1-(5-tert-butylisoxazol-3-yl)-3-(3-(6-methoxy-7-(3-(4-methylpiperazin-1-yl)propoxy)quinazolin-4-ylthio)phenyl)urea]",< 250,500 to 1000,250 to 500,250 to 500
"COc1cc2c(Sc3cccc(NC(=O)Nc4cc(C(C)(C)C)on4)c3)ncnc2cc1OCCCN1CCN(CCO)CC1 [Ex 75, 1-(5-tert-butylisoxazol-3-yl)-3-(3-(7-(3-(4-(2-hydroxyethyl)piperazin-1-yl)propoxy)-6-methoxyquinazolin-4-ylthio)phenyl)urea]",< 250,> 1000,250 to 500,250 to 500
"COc1cc2c(Sc3cccc(NC(=O)Nc4cc(C(C)(C)C)on4)c3)ncnc2cc1OCCCN1CCCCC1 [Ex 76, 1-(5-tert-butylisoxazol-3-yl)-3-(3-(6-methoxy-7-(3-(piperidin-1-yl)propoxy)quinazolin-4-ylthio)phenyl)urea]",< 250,> 1000,500 to 1000,250 to 500
"COc1cc2c(Sc3cccc(NC(=O)Nc4cc(C(C)(C)C)on4)c3)ncnc2cc1OCCCN1CCN(S(C)(=O)=O)CC1 [Ex 77, 1-(5-tert-butylisoxazol-3-yl)-3-(3-(6-methoxy-7-(3-(4-(methylsulfonyl)piperazin-1-yl)propoxy)quinazolin-4-ylthio)phenyl)urea]",< 250,250 to 500,500 to 1000,500 to 1000
"COc1cc2c(Sc3cccc(NC(=O)Nc4cc(C(C)(C)C)on4)c3)ncnc2cc1OCCN1CCOCC1 [Ex 79, 1-(5-tert-butylisoxazol-3-yl)-3-(3-(6-methoxy-7-(2-morpholinoethoxy)quinazolin-4-ylthio)phenyl)urea]",< 250,> 1000,500 to 1000,500 to 1000
"COc1cc2c(Sc3cccc(NC(=O)Nc4cc(C(C)(C)C)on4)c3)ncnc2cc1OCCN1CCCCC1 [Ex 80, 1-(5-tert-butylisoxazol-3-yl)-3-(3-(6-methoxy-7-(2-(piperidin-1-yl)ethoxy)quinazolin-4-ylthio)phenyl)urea]",250 to 500,> 1000,250 to 500,250 to 500
"COc1cc2c(Sc3cccc(NC(=O)Nc4cc(C(C)(C)C)on4)c3)ncnc2cc1OCCN1CCN(S(C)(=O)=O)CC1 [Ex 81, 1-(5-tert-butylisoxazol-3-yl)-3-(3-(6-methoxy-7-(2-(4-(methylsulfonyl)piperazin-1-yl)ethoxy)quinazolin-4-ylthio)phenyl)urea]",< 250,250 to 500,500 to 1000,500 to 1000
